# In US20230265151A1, “GIP/GLP1 CO-AGONIST COMPOUNDS” (priority 2020, published 2023):
# Like-named read-outs stand apart in the source and are kept apart here. *1 amine or outer side, *2 acyl side, *3 side chain or, on linkers, in order; H or OH if unused. Where a SMILES comes first, the peptide text is derived from it. Side-chain parts run from the residue outwards. [ ]: non-standard residue; d: D form. The star is where a group is joined. Butanoyl(4-(4-tBuPh)) = CC(C)(C)c1ccc(CCCC(=O)*)cc1; αMePhe(2-F) = C[C@](N)(Cc1ccccc1F)C(=O)O; γGlu = O=C(O)[C@H](CCC(=O)[*:2])N[*:1]; αMeY = C[C@](N)(Cc1ccc(O)cc1)C(=O)O; 4Pal = N[C@@H](Cc1ccncc1)C(=O)O; αMeL = CC(C)C[C@](C)(N)C(=O)O; Orn = NCCC[C@H](N)C(=O)O; AEEA = NCCOCCOCC(=O)O; Aib = CC(C)(N)C(=O)O
# Tests used:
# Assay type in all cases: cell-based
# hGIPR = biological target: T1, hGIPR (Homo sapiens, UniProt P48546); experiment: Functional cAMP formation (HTRF) in HEK-293 clonal cells expressing hGIPR, 0.1% bovine casein, without or with 1.0% human serum albumin; conditions: for EC50: geometric mean, read-out: hGIPR EC50, nM (SEM, n); for Emax: read-out: hGIPR Emax, % ± SEM
# T1 construct: expressed in transfected cells
# T1 sequence (P48546 22-466): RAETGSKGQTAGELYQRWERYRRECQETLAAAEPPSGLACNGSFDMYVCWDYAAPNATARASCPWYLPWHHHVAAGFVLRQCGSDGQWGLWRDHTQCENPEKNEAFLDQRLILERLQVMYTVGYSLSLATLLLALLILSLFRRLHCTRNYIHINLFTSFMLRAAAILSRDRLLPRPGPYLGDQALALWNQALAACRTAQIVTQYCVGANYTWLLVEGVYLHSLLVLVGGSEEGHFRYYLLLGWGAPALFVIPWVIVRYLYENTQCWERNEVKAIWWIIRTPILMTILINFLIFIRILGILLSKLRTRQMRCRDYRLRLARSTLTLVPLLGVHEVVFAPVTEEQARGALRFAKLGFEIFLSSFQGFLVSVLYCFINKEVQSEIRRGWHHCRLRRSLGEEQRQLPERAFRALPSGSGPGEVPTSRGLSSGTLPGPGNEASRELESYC
# Outline: (§1)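 Readings of the HTRF 665/620 nm ratio, which falls as cAMP rises, were converted to nM cAMP using a standard curve after 30 min peptide exposure at 37° C.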
# hGCGR = biological target: T2, hGCGR (Homo sapiens, UniProt P47871); experiment: Functional cAMP formation (HTRF) in HEK-293 clonal cells expressing hGCGR, 0.1% bovine casein, without or with 1.0% human serum albumin; conditions: geometric mean, read-out: hGCGR EC50, nM (SEM, n)
# T2 construct: expressed in transfected cells
# Outline: as §1
# hGLP-1R = hGLP-1R (Homo sapiens, UniProt P43220); experiment: Functional cAMP formation (HTRF) in HEK-293 clonal cells expressing hGLP-1R, 0.1% bovine casein, without or with 1.0% human serum albumin; parameters: expressed in transfected cells; conditions: for EC50: geometric mean, read-out: hGLP-1R EC50, nM (SEM, n); for Emax: read-out: hGLP-1R Emax, % ± SEM
# Outline: as §1
# [1] = 0.1% bovine casein and 1.0% human serum albumin, 37° C.
# [2] = HEK293, 0.1% bovine casein and 1.0% human serum albumin, 37° C., percent of maximal response to GIP(1-42)NH2
# [3] = cAMP, incubated at 37° C., 0.1% bovine casein (no human serum albumin)
# [4] = HEK293, percent of maximal response to GIP(1-42)NH2, 37° C., 0.1% bovine casein, arithmetic mean
# [5] = HEK293, 0.1% bovine casein and 1.0% human serum albumin, 37° C., percent of maximal response to GLP-1(7-36)NH2
# [6] = HEK293, percent of maximal response to GLP-1(7-36)NH2, 37° C., 0.1% bovine casein, arithmetic mean
# T2 sequence (P47871 26-477): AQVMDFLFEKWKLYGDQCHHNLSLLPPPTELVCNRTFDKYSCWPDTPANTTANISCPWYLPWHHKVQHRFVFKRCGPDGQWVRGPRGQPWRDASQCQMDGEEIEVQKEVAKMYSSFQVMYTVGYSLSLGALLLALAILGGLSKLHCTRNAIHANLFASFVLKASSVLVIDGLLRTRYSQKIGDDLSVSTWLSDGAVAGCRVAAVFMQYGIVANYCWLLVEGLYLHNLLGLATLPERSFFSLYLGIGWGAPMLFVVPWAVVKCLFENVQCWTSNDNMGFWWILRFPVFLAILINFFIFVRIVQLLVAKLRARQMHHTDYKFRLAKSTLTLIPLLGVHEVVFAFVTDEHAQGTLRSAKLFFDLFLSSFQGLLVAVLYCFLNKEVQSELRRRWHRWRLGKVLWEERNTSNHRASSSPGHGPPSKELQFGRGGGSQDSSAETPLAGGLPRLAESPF
# hGLP-1R, sequence (P43220 24-463): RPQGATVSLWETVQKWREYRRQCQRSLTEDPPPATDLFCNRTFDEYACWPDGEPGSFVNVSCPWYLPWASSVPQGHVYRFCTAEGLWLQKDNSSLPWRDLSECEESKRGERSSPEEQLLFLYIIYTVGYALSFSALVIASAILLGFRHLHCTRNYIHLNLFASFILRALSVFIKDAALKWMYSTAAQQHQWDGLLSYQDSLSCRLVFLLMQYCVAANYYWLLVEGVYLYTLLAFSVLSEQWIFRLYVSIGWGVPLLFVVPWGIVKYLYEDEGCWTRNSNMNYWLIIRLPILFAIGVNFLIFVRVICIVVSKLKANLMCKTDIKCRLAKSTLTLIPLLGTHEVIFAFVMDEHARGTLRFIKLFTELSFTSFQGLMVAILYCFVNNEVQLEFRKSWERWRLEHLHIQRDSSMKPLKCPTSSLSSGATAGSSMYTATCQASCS
SMILES,EC50 (hGIPR; [1]) [nM],Emax (hGIPR; [2]) [%],EC50 (hGIPR; [3]) [nM],EC50 (hGCGR; [1]) [nM],EC50 (hGCGR; [3]) [nM],EC50 (hGLP-1R; [1]) [nM],Emax (hGIPR; [4]) [%],Emax (hGLP-1R; [5]) [%],Emax (hGLP-1R; [6]) [%],EC50 (hGLP-1R; [3]) [nM]
CC[C@H](C)[C@H](NC(=O)[C@H](CCCN)NC(=O)[C@H](CC(=O)O)NC(=O)[C@H](CC(C)C)NC(=O)[C@](C)(CC(C)C)NC(=O)[C@@H](NC(=O)[C@H](CO)NC(=O)[C@H](Cc1ccncc1)NC(=O)[C@H](CC(=O)O)NC(=O)[C@H](CO)NC(=O)[C@@H](NC(=O)[C@](C)(Cc1ccccc1F)NC(=O)[C@@H](NC(=O)CNC(=O)[C@H](CCC(=O)O)NC(=O)C(C)(C)NC(=O)[C@@H](N)Cc1ccc(O)cc1)[C@@H](C)O)[C@@H](C)O)[C@@H](C)CC)C(=O)N[C@@H](C)C(=O)N[C@@H](CCC(N)=O)C(=O)NC(C)(C)C(=O)N[C@@H](CCCCNC(=O)COCCOCCNC(=O)COCCOCCNC(=O)CC[C@H](NC(=O)CCCc1ccc(C(C)(C)C)cc1)C(=O)O)C(=O)N[C@@H](Cc1ccccc1)C(=O)N[C@H](C(=O)N[C@H](CCC(=O)O)C(=O)N[C@@](C)(Cc1ccc(O)cc1)C(=O)N[C@@H](CC(C)C)C(=O)N[C@H](C(=O)N[C@@H](CCC(=O)O)C(=O)NCC(=O)NCC(=O)N1CCC[C@H]1C(=O)N[C@@H](CO)C(=O)N[C@@H](CO)C(=O)NCC(=O)N[C@@H](C)C(=O)N1CCC[C@H]1C(=O)N1CCC[C@H]1C(=O)N1CCC[C@H]1C(=O)N[C@@H](CO)C(=O)N[C@@H](CCCCNC(=O)COCCOCCNC(=O)COCCOCCNC(=O)CC[C@H](NC(=O)CCCc1ccc(C(C)(C)C)cc1)C(=O)O)C(N)=O)[C@@H](C)CC)[C@@H](C)CC [Example 205],0.261,72.1,0.0264,> 9950,> 9950,2.18,,,,
CC[C@H](C)[C@H](NC(=O)[C@H](CCCN)NC(=O)[C@H](CC(=O)O)NC(=O)[C@H](CC(C)C)NC(=O)[C@](C)(CC(C)C)NC(=O)[C@@H](NC(=O)[C@H](CO)NC(=O)[C@H](Cc1ccncc1)NC(=O)[C@H](CC(=O)O)NC(=O)[C@H](CO)NC(=O)[C@@H](NC(=O)[C@](C)(Cc1ccccc1F)NC(=O)[C@@H](NC(=O)CNC(=O)[C@H](CCC(=O)O)NC(=O)C(C)(C)NC(=O)[C@@H](N)Cc1ccc(O)cc1)[C@@H](C)O)[C@@H](C)O)[C@@H](C)CC)C(=O)N[C@@H](C)C(=O)N[C@@H](CCC(N)=O)C(=O)NC(C)(C)C(=O)N[C@@H](CCC(=O)O)C(=O)N[C@@H](Cc1ccccc1)C(=O)N[C@H](C(=O)N[C@H](CCC(=O)O)C(=O)N[C@@](C)(Cc1ccc(O)cc1)C(=O)N[C@@H](CC(C)C)C(=O)N[C@H](C(=O)N[C@@H](CCCCNC(=O)COCCOCCNC(=O)COCCOCCNC(=O)CC[C@H](NC(=O)CCCc1ccc(C(C)(C)C)cc1)C(=O)O)C(=O)NCC(=O)NCC(=O)N1CCC[C@H]1C(=O)N[C@@H](CO)C(=O)N[C@@H](CO)C(=O)NCC(=O)N[C@@H](C)C(=O)N1CCC[C@H]1C(=O)N1CCC[C@H]1C(=O)N1CCC[C@H]1C(=O)N[C@@H](CO)C(=O)N[C@@H](CCCCNC(=O)COCCOCCNC(=O)COCCOCCNC(=O)CC[C@H](NC(=O)CCCc1ccc(C(C)(C)C)cc1)C(=O)O)C(N)=O)[C@@H](C)CC)[C@@H](C)CC [Example 206] (H-Y[Aib]EGT[αMePhe(2-F)]TSD[4Pal]SI[αMeL]LD[Orn]IAQ[Aib]EFI[dE][αMeY]LIK([AEEA-AEEA-γGlu-Butanoyl(4-(4-tBuPh))])GGPSSGAPPPSK([AEEA-AEEA-γGlu-Butanoyl(4-(4-tBuPh))])-NH2),0.242,77.6,0.0204,> 9950,> 9950,3.03,96.4,98.1,100,0.299
CC[C@H](C)[C@H](NC(=O)[C@H](CC(C)C)NC(=O)[C@](C)(Cc1ccc(O)cc1)NC(=O)[C@@H](CCC(=O)O)NC(=O)[C@@H](NC(=O)[C@H](Cc1ccccc1)NC(=O)[C@H](CCCCNC(=O)COCCOCCNC(=O)CC[C@H](NC(=O)CCCc1ccc(C(C)(C)C)cc1)C(=O)O)NC(=O)C(C)(C)NC(=O)[C@H](CCC(N)=O)NC(=O)[C@H](C)NC(=O)[C@H](CCCCNC(=O)COCCOCCNC(=O)CC[C@H](NC(=O)CCCc1ccc(C(C)(C)C)cc1)C(=O)O)NC(=O)[C@H](CCCN)NC(=O)[C@H](CC(=O)O)NC(=O)[C@H](CC(C)C)NC(=O)[C@](C)(CC(C)C)NC(=O)[C@@H](NC(=O)[C@H](CO)NC(=O)[C@H](Cc1ccncc1)NC(=O)[C@H](CC(=O)O)NC(=O)[C@H](CO)NC(=O)[C@@H](NC(=O)[C@](C)(Cc1ccccc1F)NC(=O)[C@@H](NC(=O)CNC(=O)[C@H](CCC(=O)O)NC(=O)C(C)(C)NC(=O)[C@@H](N)Cc1ccc(O)cc1)[C@@H](C)O)[C@@H](C)O)[C@@H](C)CC)[C@@H](C)CC)C(=O)N[C@@H](CCC(=O)O)C(=O)NCC(=O)NCC(=O)N1CCC[C@H]1C(=O)N[C@@H](CO)C(=O)N[C@@H](CO)C(=O)NCC(=O)N[C@@H](C)C(=O)N1CCC[C@H]1C(=O)N1CCC[C@H]1C(=O)N1CCC[C@H]1C(=O)N[C@@H](CO)C(N)=O [Example 207],0.591,97.9,0.019,> 9950,> 9950,2.98,96.2,112,95.1,0.209
CC[C@H](C)[C@H](NC(=O)[C@H](CC(C)C)NC(=O)[C@](C)(Cc1ccc(O)cc1)NC(=O)[C@@H](CCC(=O)O)NC(=O)[C@@H](NC(=O)[C@H](Cc1ccccc1)NC(=O)[C@H](CCC(=O)O)NC(=O)C(C)(C)NC(=O)[C@H](CCC(N)=O)NC(=O)[C@H](C)NC(=O)[C@H](CCCCNC(=O)COCCOCCNC(=O)CC[C@H](NC(=O)CCCc1ccc(C(C)(C)C)cc1)C(=O)O)NC(=O)[C@H](CCCN)NC(=O)[C@H](CC(=O)O)NC(=O)[C@H](CC(C)C)NC(=O)[C@](C)(CC(C)C)NC(=O)[C@@H](NC(=O)[C@H](CO)NC(=O)[C@H](Cc1ccncc1)NC(=O)[C@H](CC(=O)O)NC(=O)[C@H](CO)NC(=O)[C@@H](NC(=O)[C@](C)(Cc1ccccc1F)NC(=O)[C@@H](NC(=O)CNC(=O)[C@H](CCC(=O)O)NC(=O)C(C)(C)NC(=O)[C@@H](N)Cc1ccc(O)cc1)[C@@H](C)O)[C@@H](C)O)[C@@H](C)CC)[C@@H](C)CC)C(=O)N[C@@H](CCCCNC(=O)COCCOCCNC(=O)CC[C@H](NC(=O)CCCc1ccc(C(C)(C)C)cc1)C(=O)O)C(=O)NCC(=O)NCC(=O)N1CCC[C@H]1C(=O)N[C@@H](CO)C(=O)N[C@@H](CO)C(=O)NCC(=O)N[C@@H](C)C(=O)N1CCC[C@H]1C(=O)N1CCC[C@H]1C(=O)N1CCC[C@H]1C(=O)N[C@@H](CO)C(N)=O [Example 208],0.126,64.1,0.018,> 9950,> 9950,1.58,94.9,,,
CC[C@H](C)[C@H](NC(=O)[C@H](CC(C)C)NC(=O)[C@](C)(Cc1ccc(O)cc1)NC(=O)[C@@H](CCC(=O)O)NC(=O)[C@@H](NC(=O)[C@H](Cc1ccccc1)NC(=O)[C@H](CCC(=O)O)NC(=O)C(C)(C)NC(=O)[C@H](CCC(N)=O)NC(=O)[C@H](C)NC(=O)[C@H](CCCCNC(=O)COCCOCCNC(=O)CC[C@H](NC(=O)CCCc1ccc(C(C)(C)C)cc1)C(=O)O)NC(=O)[C@H](CCCN)NC(=O)[C@H](CC(=O)O)NC(=O)[C@H](CC(C)C)NC(=O)[C@](C)(CC(C)C)NC(=O)[C@@H](NC(=O)[C@H](CO)NC(=O)[C@H](Cc1ccncc1)NC(=O)[C@H](CC(=O)O)NC(=O)[C@H](CO)NC(=O)[C@@H](NC(=O)[C@](C)(Cc1ccccc1F)NC(=O)[C@@H](NC(=O)CNC(=O)[C@H](CCC(=O)O)NC(=O)C(C)(C)NC(=O)[C@@H](N)Cc1ccc(O)cc1)[C@@H](C)O)[C@@H](C)O)[C@@H](C)CC)[C@@H](C)CC)C(=O)N[C@@H](CCC(=O)O)C(=O)NCC(=O)NCC(=O)N1CCC[C@H]1C(=O)N[C@@H](CO)C(=O)N[C@@H](CO)C(=O)NCC(=O)N[C@@H](C)C(=O)N1CCC[C@H]1C(=O)N1CCC[C@H]1C(=O)N1CCC[C@H]1C(=O)N[C@@H](CO)C(=O)N[C@@H](CCCCNC(=O)COCCOCCNC(=O)CC[C@H](NC(=O)CCCc1ccc(C(C)(C)C)cc1)C(=O)O)C(N)=O [Example 209],0.173,90.8,0.0133,> 9950,> 9950,1.16,,109,100,0.235
